The subject of one data set is MDA-MB-231. The data set is described as follows: Cytotoxic activity against MDA-MB-231 breast cancer cells.
Another data set concerns MCF7. Nature of the data set: Cytotoxic activity against MCF7 breast cancer cells.
For a further data set, the system named is MCF7/TAMR. Nature of the data set: Cytotoxic activity against tamoxifen-resistant MCF7 cells.
Data set [1] relates to MCF7, MDA-MB-231 and MCF7/TAMR breast cancer cell lines.
Data set [2] deals with T1, PTP1B (human, recombinant) (Homo sapiens, UniProt P18031).
T1 construct: purchased BIOMOL International LP (USA)
T1 sequence (P18031 1-435): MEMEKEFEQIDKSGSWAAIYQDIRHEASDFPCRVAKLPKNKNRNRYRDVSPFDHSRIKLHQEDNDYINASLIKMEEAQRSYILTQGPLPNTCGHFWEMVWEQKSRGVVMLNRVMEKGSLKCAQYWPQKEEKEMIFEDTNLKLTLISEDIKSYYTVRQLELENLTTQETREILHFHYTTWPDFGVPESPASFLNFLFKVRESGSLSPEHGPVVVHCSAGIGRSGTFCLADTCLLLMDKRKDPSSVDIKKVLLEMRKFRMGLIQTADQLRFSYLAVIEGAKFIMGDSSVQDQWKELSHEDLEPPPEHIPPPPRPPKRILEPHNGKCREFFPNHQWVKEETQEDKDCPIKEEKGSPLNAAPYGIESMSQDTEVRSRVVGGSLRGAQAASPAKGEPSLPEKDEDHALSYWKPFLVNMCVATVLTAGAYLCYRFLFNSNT
Nature of the data set: PTP1B enzyme assay (p-NPP substrate). Type of data set: biochemical. The following applies: for IC50: mean ± SD of three replicates, 4 mM p-NPP, 37 °C, 30 min; for PTP1B inhibition mode (Lineweaver-Burk plot): p-NPP 1, 2, 4, 8 mM, compound 1, 2, 5, 10 μM. The protocol:
PTP1B (human, recombinant) was purchased from BIOMOL International LP (USA) and the enzyme activity was measured using p-nitrophenyl phosphate (p-NPP) (N1891, Sigma-Aldrich, St. Louis, MO, USA) as a substrate. In general, the assay was performed in 96-well plate containing 4 mM p-NPP and PTP1B (0.05–0.1 μg) in enzyme buffer (50 mM citrate (pH 6.0), 0.1 M NaCl, 1 mM dithiothreitol (DTT), and 1 mM EDTA) with or without test compounds. The assay was also carried out in the absence of PTP1B enzyme to exclude the effect of test compounds on the measurement absorbance. Following incubation at 37 °C for 30 min, the reaction was terminated with 10 M NaOH solution. The amount of produced p-nitrophenol was estimated by measuring the absorbance at 405 nm using an absorbance microplate reader (VersaMax™, Randor, PA, USA). For the enzyme kinetic determination, Lineweaver-Burk was used to determine the inhibition type of PTP1B. On the basis of Lineweaver-Burk double reciprocal plots, the PTP1B inhibition mode was obtained at various concentrations of p-NPP substrate (1, 2, 4, and 8 mM) without or with different test compound concentrations (1, 2, 5, and 10 μM).

The subject of the next data set is MCF-7 cells. Nature of the data set: Flow cytometric analysis of cell apoptosis (ApopNexin FITC / PI). Type of data set: cell-based. The protocol: An ApopNexin™ FITC kit (Millipore) was used for the flow cytometric analysis. After MCF-7 cells were seeded on 6-well plates and incubated for 24 h, the cells were treated with test compounds and incubated for 12 h. The detached cells were collected and resuspended to wash the cells twice with PBS. The cells were suspended in cold binding buffer (10 mM Hepes/NaOH pH 7.4, 140 mM NaCl, 2.5 mM CaCl2) at a concentration of 10^6 cells/mL. Annexin conjugate ApopNexin™ FITC and propidium iodide (PI) were added to the cell suspension, which was incubated for 15 min in the dark. Then, the double-stained cells were immediately analyzed using a flow cytometer (BD bioscience, San Jose, CA, USA).
(In flow cytometry, cells or beads pass a laser one at a time.)

Where [3] appears, read: Homo sapiens, MDA-MB-231, read-out: Cytotoxic Activities (IC50, μM) MDA-MB-231.
Setting [4] is: Homo sapiens, MCF7, read-out: Cytotoxic Activities (IC50, μM) MCF7.
Where [5] appears, read: Homo sapiens, MCF7, read-out: Cytotoxic Activities (IC50, μM) MCF7/TAMR.

We go through 7 molecules from publication PMC6273847, “Protein Tyrosine Phosphatase 1B Inhibitors from the Stems of Akebia quinata” (Molecules, 2016).

Where two headings read alike, the source gives them in different places.

For “4-hydroxy tamoxifen [4-OH tamoxifen, reference compound]”, the IC50 with MDA-MB-231 (read-out: Cytotoxic Activities (IC50, μM) MDA-MB-231, MDA-MB-231, mean ± SD of three replicates) was 3.1 ± 0.31 µM; in the data set with MCF7 (read-out: Cytotoxic Activities (IC50, μM) MCF7, MCF7, mean ± SD of three replicates), 2.11 ± 0.39 µM; in the data set on MCF7/TAMR (read-out: Cytotoxic Activities (IC50, μM) MCF7/TAMR, MCF7/TAMR, mean ± SD of three replicates) it was 13.6 ± 1.25 µM.
Regarding `CC(CO)c1cc2c(c(O)c1O)[C@@]1(C)CCCC(C)(C)C1CC2=O` (stereo partly drawn) [Compound 2, cyrtophyllones B], the IC50 in the data set with MDA-MB-231 (setting [3]) worked out at 4.04 ± 0.8 µM; in the data set on MCF7 (setting [4]), 7.91 ± 0.39 µM; in the data set with MCF7/TAMR (setting [5]), 13.4 ± 1.26 µM; in data set [2], 6.77 ± 1.28 µM. Moreover, the “cytotoxic activities against breast cancer lines, IC50 values ranging over the cell lines” value in data set [1] is 0.84 ± 0.17 to 13.42 ± 1.26.
Regarding `CC1=C(C)C2=CC(=O)c3c(O)c4c(c(O)c3[C@@]2(C)CC1)O[C@@H](C)C4` [Compound 3, uncinatone], the IC50 in the data set on MDA-MB-231 (setting [3]) turned out to be 5.14 ± 1.55 µM; in the data set with MCF7 (setting [4]), 6.02 ± 2.32 µM; in the data set on MCF7/TAMR (setting [5]) it was 7.73 ± 1.02 µM; in data set [2] it was 5.41 ± 0.68 µM. Moreover, the “cytotoxic activities against breast cancer lines, IC50 values ranging over the cell lines” value in data set [1] is reported as 0.84 ± 0.17 to 13.42 ± 1.26. The “PTP1B inhibition mode (Lineweaver-Burk plot)” value in data set [2] is “noncompetitive”.
Turning to `CC1(C)CC[C@]2(C(=O)O)CC[C@]3(C)C(=CCC4[C@@]5(C)CCC(O[C@@H]6OC[C@H](O)[C@H](O)[C@H]6O)C(C)(C)C5CC[C@]43C)C2C1` (stereo partly drawn) [Compound 6, 3-O-α-L-arabinopyranosyl olean-12-en-28-oic acid], the “percentage of apoptotic cancer cells (higher right field, Annexin FITC/PI)” value in the data set with MCF-7 cells (10 μM, 12 h) was 89.47%. In the data set with MCF-7 cells (Homo sapiens, MCF7, 12 h, read-out: percentage of cells in lower left field (viable; low Annexin V and PI staining)), the viability at 10 µM worked out at 0.75%. For the same molecule, the IC50 in the data set on MDA-MB-231 (setting [3]) was determined as 0.84 ± 0.17 µM; in the data set on MCF7 (setting [4]), 1.11 ± 0.04 µM; in the data set on MCF7/TAMR (setting [5]) it was 1.39 ± 0.18 µM; in data set [2], 4.08 ± 1.09 µM. Further, the “PTP1B inhibition mode (Lineweaver-Burk plot)” value in data set [2] is on record as “noncompetitive”.
As for `CC1(C)CC[C@]2(C(=O)O)CC[C@]3(C)C(=CCC4[C@@]5(C)CCC(O[C@@H]6OC[C@H](O[C@@H]7O[C@H](CO)[C@@H](O)[C@H](O)[C@H]7O)[C@H](O)[C@H]6O)C(C)(C)C5CC[C@]43C)C2C1` (stereo partly drawn) [Compound 8], the IC50 in the data set with MDA-MB-231 (setting [3]) was 1.55 ± 0.21 µM; with MCF7 (setting [4]), 1.29 ± 0.09 µM; in the data set on MCF7/TAMR (setting [5]), 1.78 ± 0.13 µM; in data set [2], 21.8 ± 4.74 µM.
For the molecule `CC1(C)CC[C@]2(C(=O)O)CC[C@]3(C)C(=CCC4[C@@]5(C)C[C@@H](O)[C@@H](O)[C@](C)(CO)C5CC[C@]43C)C2C1` (stereo partly drawn) [Compound 11, 2α,3α,23-trihydroxyoleane-12-en-28-oic acid], the IC50 with MCF7 (setting [4]) is above 40 µM; in data set [2] it was 7.78 ± 1.43 µM.
`CC/C(=C(\c1ccccc1)c1ccc(OCCN(C)C)cc1)c1ccccc1` [Tamoxifen, tamoxifen, reference compound]: the IC50 amounted to 10.1 ± 1.51 µM in the data set on MDA-MB-231 (setting [3]), 8.01 ± 1.81 µM in the data set with MCF7 (setting [4]) and 25.4 ± 1.79 µM in the data set on MCF7/TAMR (setting [5]).
